Data published in patent publication US9212359B2, “Systems for induction of gene expression and protein depletion in yeast” (priority 2011, dated 2015).

Tested on: GEV
Experiment: β-Galactosidase activity assay, PGAL1-lacZ reporter plasmid pCM64-GAL1 in DBY12100
Type: cell-based, S. cerevisiae
Conditions: 2 hours incubation, 1 μM or 10 μM DOC
Method: Assays were performed essentially as described in (Liu et al., 1999) with minor modifications. 5 mL of cells transformed with pCM64-GAL1 were grown to midlog phase in SC-URA medium at 30° C., then incubated at indicated temperatures for the indicated times with or without (a) 5 μL of ethanol (vehicle control), (b) 2 μL of 2.5 mM β-estradiol (Sigma) dissolved in ethanol (final concentration of 1 μM), (c) 5 μL of 1 mM DOC (deoxycorticosterone; Sigma) dissolved in ethanol (final concentration of 1 μM), or (d) 5 μL of 10 mM DOC dissolved in ethanol (final concentration of 10 μM). Cells (1 mL) were harvested by centrifugation, washed once with sterile H2O, and resuspended in 700 μl of Z buffer (100 mM sodium phosphate, pH 7.0, 10 mM KCl, 1 mM MgSO4, 50 mM β-mercaptoethanol). 50 μl of chloroform and 50 μl of 0.1% SDS were added, and the cell suspension was vortex-mixed at top speed for 30 seconds followed by addition of 200 μl of 4 mg/ml ONPG (ortho-nitrophenyl-β-galactoside; Sigma) was added to each sample and incubated at room temperature until pale yellow color appeared. […] After clarification by centrifugation, the supernatant was diluted, and A420 was measured within the linear response range. Specific β-galactosidase activity was calculated as follows: (A420×1000)/(A600×(volume of cells examined in ml)×(time of incubation in minutes)) and reported in Miller units. […]

## C[C@]12CC[C@H]3[C@@H](CCC4=CC(=O)CC[C@@]43C)[C@@H]1CC[C@@H]2C(=O)CO [deoxycorticosterone]
  induction of GEV (lacZ activity): not induced
